pIC50: −log10 of the molar value.
Each compound was assayed against T1, Protein farnesyltransferase (Homo sapiens, UniProt P49354+P49356) (assay: Inhibitory activity against Protein farnesyltransferase (Inactive)).
Assay type: protein-complex assay; call rule not given here

In the case of `CCCCCCCCCCCS(=O)(=O)N1CCC(=C2c3ccc(Cl)cc3CCc3cccnc32)CC1`, the IC50 was “Not Active”.
For `CCCCCCCCCCS(=O)(=O)N1CCC(=C2c3ccc(Cl)cc3CCc3cccnc32)CC1`, the IC50 was “Not Active”.

These compounds were tested against T1, Protein farnesyltransferase (assay: Inhibitory activity against protein farnesyltransferase.).
Assay type: protein-complex assay

`O=C([C@@H](Cc1c[nH]cn1)N1C(=O)c2ccccc2C1=O)N1CCC(=C2c3ccc(Cl)cc3CCc3cccnc32)CC1` and `C[C@H](C(=O)N1CCC(=C2c3ccc(Cl)cc3CCc3cccnc32)CC1)N1C(=O)c2ccccc2C1=O` are within 0.2 log units of each other in pIC50: 5.44 for the first, 5.34 for the second.

Going from `NCC(=O)N1CCC(=C2c3ccc(Cl)cc3CCc3cccnc32)CC1` to `CC(C)(C)OC(=O)NCC(=O)N1CCC(=C2c3ccc(Cl)cc3CCc3cccnc32)CC1`, the pIC50 rises from 4.65 to 5.17 (0.52 log units).

First: C=CS(=O)(=O)N1CCC(=C2c3ccc(Cl)cc3CCc3cccnc32)CC1
Second: CS(=O)(=O)N1CCC(=C2c3ccc(Cl)cc3CCc3cccnc32)CC1
The pIC50 of the first is 0.28 log units higher: 6.00 for the first, 5.72 for the second. The first is the more potent here.

First: O=C(CN1C(=O)c2ccccc2C1=O)N1CCC(=C2c3ccc(Cl)cc3CCc3cccnc32)CC1
Second: O=C(CN1C(=O)c2ccccc2S1(=O)=O)N1CCC(=C2c3ccc(Cl)cc3CCc3cccnc32)CC1
The pIC50 of the first is 0.48 log units higher: 6.18 for the first, 5.70 for the second. The first is the more potent here.

Compared with `COc1ccc(CSC[C@@H](NC(=O)OC(C)(C)C)C(=O)N2CCC(=C3c4ccc(Cl)cc4CCc4cccnc43)CC2)cc1`, `COc1ccc(CSC[C@@H](N)C(=O)N2CCC(=C3c4ccc(Cl)cc4CCc4cccnc43)CC2)cc1` is 0.32 log units lower in pIC50: 5.52 for the first, 5.20 for the second. The first is the more potent here.

`O=C(NCC(=O)N1CCC(=C2c3ccc(Cl)cc3CCc3cccnc32)CC1)OCc1ccccc1` and `O=C(Cc1ccccc1)NCC(=O)N1CCC(=C2c3ccc(Cl)cc3CCc3cccnc32)CC1` are within 0.2 log units of each other in pIC50: 5.07 for the first, 5.08 for the second.

First: O=C(O)c1ccccc1S(=O)(=O)N1CCC(=C2c3ccc(Cl)cc3CCc3cccnc32)CC1
Second: COC(=O)c1ccccc1S(=O)(=O)N1CCC(=C2c3ccc(Cl)cc3CCc3cccnc32)CC1
The pIC50 of the first is lower: less than 4.96 for the first, 4.97 for the second. The second is the more potent here.

`O=[N+]([O-])c1ccc(S(=O)(=O)N2CCC(=C3c4ccc(Cl)cc4CCc4cccnc43)CC2)cc1` and `O=S(=O)(c1ccc2ccccc2c1)N1CCC(=C2c3ccc(Cl)cc3CCc3cccnc32)CC1` cannot be ordered by pIC50: less than 4.92 for the first, less than 4.92 for the second.

`CCCCS(=O)(=O)N1CCC(=C2c3ccc(Cl)cc3CCc3cccnc32)CC1` and `CCS(=O)(=O)N1CCC(=C2c3ccc(Cl)cc3CCc3cccnc32)CC1` are within 0.2 log units of each other in pIC50: 5.32 for the first, 5.28 for the second.

Compared with `O=C(N[C@H](Cc1ccc(O)cc1)C(=O)N1CCC(=C2c3ccc(Cl)cc3CCc3cccnc32)CC1)OCc1ccccc1`, `O=C([C@@H](Cc1ccccc1)N1C(=O)c2ccccc2C1=O)N1CCC(=C2c3ccc(Cl)cc3CCc3cccnc32)CC1` is lower in pIC50: 5.92 for the first, less than 5.00 for the second.

`CC1(C)C2CCC1(CS(=O)(=O)N1CCC(=C3c4ccc(Cl)cc4CCc4cccnc43)CC1)C(O)C2` (centres undefined) and `CC1(C)C2CCC1(CS(=O)(=O)N1CCC(=C3c4ccc(Cl)cc4CCc4cccnc43)CC1)C(=O)C2` (centres undefined) are within 0.2 log units of each other in pIC50: 5.09 for the first, 4.94 for the second.

`O=C(CNCc1ccccc1)N1CCC(=C2c3ccc(Cl)cc3CCc3cccnc32)CC1` and `O=C(NCC(=O)N1CCC(=C2c3ccc(Cl)cc3CCc3cccnc32)CC1)c1ccccc1` are within 0.2 log units of each other in pIC50: 5.02 for the first, 5.06 for the second.

Going from `CSCC[C@H](C(=O)N1CCC(=C2c3ccc(Cl)cc3CCc3cccnc32)CC1)N1C(=O)c2ccccc2C1=O` to `CC(C)C[C@H](C(=O)N1CCC(=C2c3ccc(Cl)cc3CCc3cccnc32)CC1)N1C(=O)c2ccccc2C1=O`, the pIC50 falls from 5.33 to less than 5.00. The first is the more potent here.

Going from `CCCCCCCCS(=O)(=O)N1CCC(=C2c3ccc(Cl)cc3CCc3cccnc32)CC1` to `CN(C)S(=O)(=O)N1CCC(=C2c3ccc(Cl)cc3CCc3cccnc32)CC1`, the pIC50 rises from less than 4.92 to 5.72. The second is the more potent here.

Going from `O=S(=O)(c1cccs1)N1CCC(=C2c3ccc(Cl)cc3CCc3cccnc32)CC1` to `O=S(=O)(Cc1ccccc1)N1CCC(=C2c3ccc(Cl)cc3CCc3cccnc32)CC1`, the pIC50 rises from 4.89 to 6.00 (1.11 log units).

First: O=C(CNC(c1ccccc1)(c1ccccc1)c1ccccc1)N1CCC(=C2c3ccc(Cl)cc3CCc3cccnc32)CC1
Second: O=C(CC[C@H](C(=O)N1CCC(=C2c3ccc(Cl)cc3CCc3cccnc32)CC1)N1C(=O)c2ccccc2C1=O)Nc1ccccc1
The pIC50 of the first is lower: less than 5.00 for the first, 5.32 for the second.
